In general, pIC50 refers to the negative decadic logarithm of the IC50, by convention in mol/L. In general, inhibition refers to how much of the control response was suppressed.

From PMC10374969, “SVCT2/SLC23A2 is a sodium-dependent urate transporter: functional properties and practical application” (The Journal of Biological Chemistry, 2023) come the findings set out here.

Holding throughout (assay type): cell-based
In test [1] the target is T1, human SVCT2 (SVCT2/SLC23A2) (Homo sapiens, UniProt Q9UGH3).
T1 construct: full-length wild type, 650 aa, C-terminal EGFP tag (pEGFP-N1), transiently expressed in HEK293 cells
In words: inhibition of [[…]-14C]-urate uptake into transfected HEK293 cells, mock subtracted.

The target of test [2] is T2, mouse Svct2 (Svct2/Slc23a2) (Mus musculus, UniProt Q9EPR4).
T2 construct: full-length, 648 aa, C-terminal EGFP tag (pEGFP-N1), transiently expressed in HEK293 cells
The test is described as above.

Test [3] concerns the target T1, human SVCT2 (SVCT2/SLC23A2). In words: inhibition of [[…]-14C]-ascorbate uptake into transfected HEK293 cells.

pIC50: −log10 of the molar value.

T1 sequence (Q9UGH3 whole entry): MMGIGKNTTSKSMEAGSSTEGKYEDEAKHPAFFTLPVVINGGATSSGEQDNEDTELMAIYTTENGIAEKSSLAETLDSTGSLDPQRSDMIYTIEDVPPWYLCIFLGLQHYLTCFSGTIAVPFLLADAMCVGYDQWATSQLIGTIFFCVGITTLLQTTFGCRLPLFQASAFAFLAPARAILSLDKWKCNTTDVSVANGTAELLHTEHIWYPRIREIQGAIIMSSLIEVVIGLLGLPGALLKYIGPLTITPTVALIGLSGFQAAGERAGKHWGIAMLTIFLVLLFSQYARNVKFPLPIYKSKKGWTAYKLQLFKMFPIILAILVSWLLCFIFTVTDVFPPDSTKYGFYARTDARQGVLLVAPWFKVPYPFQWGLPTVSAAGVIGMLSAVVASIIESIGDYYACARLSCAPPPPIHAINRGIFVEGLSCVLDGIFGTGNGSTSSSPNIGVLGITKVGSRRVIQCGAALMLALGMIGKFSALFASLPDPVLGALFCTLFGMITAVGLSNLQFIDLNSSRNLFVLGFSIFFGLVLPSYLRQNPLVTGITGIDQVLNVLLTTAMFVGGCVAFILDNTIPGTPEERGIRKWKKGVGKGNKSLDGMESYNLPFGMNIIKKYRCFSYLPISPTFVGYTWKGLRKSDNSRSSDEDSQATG
T2 sequence (Q9EPR4 whole entry): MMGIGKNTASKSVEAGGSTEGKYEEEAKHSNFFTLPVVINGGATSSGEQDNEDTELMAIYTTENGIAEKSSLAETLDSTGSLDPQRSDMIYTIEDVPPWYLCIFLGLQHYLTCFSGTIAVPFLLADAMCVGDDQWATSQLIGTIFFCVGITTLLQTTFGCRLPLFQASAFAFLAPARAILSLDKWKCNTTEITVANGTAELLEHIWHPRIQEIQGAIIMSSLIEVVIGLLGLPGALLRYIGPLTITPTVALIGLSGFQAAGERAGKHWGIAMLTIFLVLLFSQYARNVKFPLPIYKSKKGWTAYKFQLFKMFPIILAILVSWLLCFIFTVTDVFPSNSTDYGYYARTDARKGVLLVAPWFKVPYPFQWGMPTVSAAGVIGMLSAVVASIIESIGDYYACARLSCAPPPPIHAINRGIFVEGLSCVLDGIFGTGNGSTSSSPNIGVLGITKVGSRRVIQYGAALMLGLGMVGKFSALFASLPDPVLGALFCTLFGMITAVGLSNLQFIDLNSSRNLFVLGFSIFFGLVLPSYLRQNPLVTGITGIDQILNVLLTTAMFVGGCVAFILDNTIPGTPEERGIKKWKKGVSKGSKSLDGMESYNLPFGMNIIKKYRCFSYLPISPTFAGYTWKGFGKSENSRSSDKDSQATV

`O=C1O[C@H]([C@@H](O)CO)C(O)=C1O` [ascorbate]: the negative-log IC50 (pIC50) in test [1] was 4.44; in test [2], 4.52.
In turn, `O=c1[nH]c(=O)c2[nH]c(=O)[nH]c2[nH]1` [urate] had an inhibition at 500 µM in test [3] of about 20%.
